According to patent US11420975B2, “Substituted imidazo[1,5-a]pyrazines as Bruton's tyrosine kinase inhibitors” (TRANSTHERA SCIENCES (NANJING), INC., priority 2018, dated 2022):
Values joined by “and” are separate entries in the source; they are usually repeats but may differ in a detail not shown here. Equal values may be shown once. Read-outs that look alike come from different tables or passages of the source.

Assays:
BTK(wt) = BTK(wt) (Homo sapiens (Human), UniProt Q06187); assay: pBTK inhibition in HEK293 cells transfected with BTK(wt) (ELISA); format: cell-based; details: 2 h
Procedure: (§1) For positive (high signal) controls, cells were treated with 0.5% DMSO alone. […] The absorbance was read at 450 nm. • Based on the absorbance readings of the positive and negative control values, the % inhibition value was calculated according to the following formula: (% INH=((positive control−sample)/(positive control−negative control))×100. • The Z′ value was calculated based on the following formula: 1−((3×standard deviation of positive+3×standard deviation of negative)/(mean positive−mean negative)). • The […] was plotted using GraphPad Prism. • IC50 values were determined after sigmoidal dose-response curve fitting.

OCI-LY10 = assay: In vitro tumor cell proliferation inhibition, OCI-LY10 (CellTiter-Glo); format: cell-based; details: Homo sapiens; OCI-LY10 cells, 72 h
Procedure: (§2) (1) Method • The tumor cell line (TMD-8/OCY-LY10) was suspended in RPMI1640+FBS10% and cultured in an incubator (37° C., 5% CO2). Cells were passaged periodically, and cells at logarithmic growth phase were collected for plating. • Cell staining was performed with trypan blue and viable cells were counted. • Cell concentration was adjusted to 7000 cells/well with medium. • 90 μL of cell suspension was added to a 96-well plate and cell-free culture medium was added to the blank control wells. • Cells in the 96-well plate were incubated overnight in an incubator (37° C., 5% CO2, 100% relative humidity). • Preparation of 400× compound storage plates: test compounds and reference drug were each dissolved in DMSO and 3× diluted from the highest concentration (400 μM) to the lowest concentration (0.61 μM). • Preparation of 10× compound working solutions: 78 μL of cell culture medium was added to a V-bottom 96-well plate, and 2 μL of the compound was pipetted from the 400× compound storage plate into the 96-well plate. Vehicle control wells and blank control wells were added with 2 μL of DMSO. […] Inhibition rates of compounds at different concentrations were calculated in Excel, followed by plotting the inhibition curves and calculating IC50 values with GraphPad Prism.

TMD-8 = assay: In vitro tumor cell proliferation inhibition, TMD-8 (CellTiter-Glo); format: cell-based; details: Homo sapiens, TMD8; TMD-8 cells, 72 h
Procedure: as §2

[1] = Pharmacokinetic study in male SD rats, intragastric; format: in vivo; details: rat, 5 mg/kg
Procedure: Male SD rats were fasted overnight before test. The test drugs were each suspended in a solution of 0.5% methylcellulose (MC) and 0.1% SDS in deionized water (w/w/v), and the suspension, each at a concentration of 1 mg/mL, was administered intragastrically at 5 mL/kg. At 15 min, 30 min, 1 h, 2 h, 4 h, 6 h, 8 h and 24 h after administration, approximately 0.4 mL of whole blood was collected from the orbital venous plexus of the animals and then placed in heparin anticoagulant tubes. Three animals were sampled at each time point and then put to death, and thus sample collection was completed on different individuals. The whole blood sample would be centrifuged within 15 min and centrifuged at 4° C./4200 rpm for 5 min. All plasma samples were stored in a refrigerator at −80±15° C. prior to analysis. An LC-MS/MS (Waters I Class UPLC-Xevo TQD tandem mass spectrometry) assay for the compounds was established prior to sample analysis. The collected plasma was quantitatively analyzed, plasma concentration-time data of animals were analyzed using WinNonlin (professional edition, version 5.2) software, a non-compartmental model was used for concentration analysis, and the pharmacokinetic parameters of the test compounds were calculated.

OCI-LY10 xenograft tumor = OCI-LY10 xenograft tumor model; format: in vivo; details: for TGI: bid
Procedure: CB17/SCID female mice with serious immune deficiency were purchased from Beijing Vital River Laboratory Animal Technology Co., Ltd. and bred in SPF animal houses. Human OCI-LY10 cells (Shanghai Junrui-UFBN0102) were cultured in an RPMI 1640 culture medium containing 10% fetal bovine serum, 100 U/mL penicillin and 100 μg/mL streptomycin through monolayer culture in vitro in an incubator (37° C., 5% C02). Routine treatment was performed twice a week for passaging. At a cell saturation of 80%-90% and a required number, the cells were harvested and counted. 0.2 mL (1×10^7) of OCI-LY10 cells (together with matrigel at a volume ratio of 1:1) were subcutaneously inoculated into the right back of each mouse, and the tumor size could be measured about one week after inoculation. Tumor size was measured using a vernier caliper and tumor volume was calculated using the following formula: tumor volume=(length×width^2)/2.

BTK(C481S) = BTK(C481S) (Homo sapiens (Human), UniProt Q06187, C481S); assay: pBTK inhibition in HEK293 cells transfected with BTK(C481S) (ELISA); format: cell-based; details: 2 h
Procedure: as §1

Chain of BTK(C481S) (Q06187 whole entry C481S): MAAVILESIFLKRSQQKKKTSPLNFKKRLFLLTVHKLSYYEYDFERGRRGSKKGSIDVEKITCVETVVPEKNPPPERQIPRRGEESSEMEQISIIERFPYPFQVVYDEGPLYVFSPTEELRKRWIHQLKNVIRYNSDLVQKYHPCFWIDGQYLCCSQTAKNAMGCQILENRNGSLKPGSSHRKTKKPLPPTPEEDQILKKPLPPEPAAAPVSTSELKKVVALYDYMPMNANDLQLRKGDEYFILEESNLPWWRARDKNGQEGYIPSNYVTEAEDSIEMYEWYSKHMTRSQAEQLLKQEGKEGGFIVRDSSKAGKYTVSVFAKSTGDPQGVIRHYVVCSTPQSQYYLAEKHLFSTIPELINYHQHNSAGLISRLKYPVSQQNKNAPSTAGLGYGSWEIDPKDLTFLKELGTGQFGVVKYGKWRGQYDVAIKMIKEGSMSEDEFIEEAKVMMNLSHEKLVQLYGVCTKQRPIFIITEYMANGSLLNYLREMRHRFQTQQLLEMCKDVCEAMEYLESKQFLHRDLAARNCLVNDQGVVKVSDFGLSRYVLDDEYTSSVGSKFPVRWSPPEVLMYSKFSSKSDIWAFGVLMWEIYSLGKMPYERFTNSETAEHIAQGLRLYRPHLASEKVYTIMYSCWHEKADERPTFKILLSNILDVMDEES
Chain of BTK(wt) (Q06187 whole entry): as the sequence (Q06187 whole entry C481S) above, with S481C counted along it

Nc1nccn2c(C34CCC(NC(=O)CN5CCOCC5)(CC3)C4)nc(-c3ccc(C(=O)Nc4cc(C(F)(F)F)ccn4)cc3)c12 [Compound A-10-10, 4-(8-amino-3-(4-(2-morpholinoacetamido)bicyclo[2.2.1]heptan-1-yl)imidazo[1,5-a]pyrazin-1-yl)-N-(4-(trifluoromethyl)pyridin-2-yl)benzamide]
IC50 (BTK(wt)): 0.077 µM
IC50 (OCI-LY10): 10.3 nM
IC50 (TMD-8): 2.9 nM
AUC(0-inf) ([1]; male, SD, plasma, po): 73.3 µg·h/mL
Tmax ([1]; male, SD, plasma, po): 2 h
half-life ([1]; male, SD, plasma, po): 3.74 h
Cmax ([1]; male, SD, plasma, po, p.o., read-out: Cmax): 8.32 µg/mL
AUC0-INF ([1]; p.o.): 73.318 µg·h/mL
Cmax ([1]; p.o.): 8.323 µg/mL
xenograft tumors disappearance (OCI-LY10 xenograft tumor; 25 mg/kg group, after 28 days of administration): disappeared completely
xenograft tumors disappearance (OCI-LY10 xenograft tumor; 50 mg/kg group, after 21 days of administration): completely disappeared
tolerance of tumor-bearing mice (OCI-LY10 xenograft tumor; all dosages): good tolerance
effect on body weight of tumor-bearing mice (OCI-LY10 xenograft tumor; all treatment groups): no significant weight loss
TGI (OCI-LY10 xenograft tumor; intragastric 25 mg/kg): 110%
TGI (OCI-LY10 xenograft tumor; intragastric 50 mg/kg): 110%
IC50 (BTK(C481S)): 0.066 µM and 0.063 µM
